Legend:
rat bladder = test: Distension-induced rhythmic contraction (DIRC) model, micturition reflex; format: in vivo; conditions: i.v.; for inhibition of bladder activity, persisted for: anesthetized rat, figure legend (FIG. 1, FIG. 2)
Description: The effects of compounds on the micturition reflex were assessed in the “distension-induced rhythmic contraction” (DIRC) model (also called “volume-induced rhythmic contraction” model) in rats, as described in previous publications (e.g. Maggi, et al., 1987; Morikawa, et al., 1992; Guarneri, et al., 1993). This model is widely considered to be predictive for the actions of drugs to treat human urge incontinence (also referred to as detrusor instability or unstable bladder). Examples of drugs that are active in this model which also are used therapeutically in humans include oxybutynin and baclofen (Morikawa et al, 1992); imipramine and nortriptyline (36); and nifedipine and terodiline (37).
Female Sprague Dawley rats weighing approximately 300 g were anesthetized with subcutaneous urethane ([…]). The trachea was cannulated with PE240 tubing to provide a clear airway throughout the experiment. A midline abdominal incision was made and the left and right ureters were isolated. The ureters were ligated distally (to prevent escape of fluids from the bladder) and cannulated proximally with PE10 tubing. The incision was closed using 4-0 silk sutures, leaving the PE10 lines routed to the exterior for the elimination of urine. The bladder was canulated via the transurethral route using PE50 tubing inserted 2.5 cm beyond the urethral opening. This cannula was secured to the tail using tape and connected to a pressure transducer. To prevent leakage from the bladder, the cannula was tied tightly to the exterior urethral opening using 4-0 silk.
To initiate the micturition reflex, the bladder was first emptied by applying pressure to the lower abdomen, and then filled with normal saline in 100 μL increments (maximum=2 ml) until spontaneous bladder contractions occurred (typically 20-40 mmHg) at a rate of one contraction every 2 to 3 minutes. Once a regular rhythm was established, vehicle (saline) or test compounds were administered i.v. to examine their effects on bladder activity. The effect of a compound which inhibited the micturition reflex was expressed as its “disappearance time”, defined as the time between successive bladder contractions in the presence of the test compound minus the time between contractions before compound administration.
Female Sprague Dawley rats weighing approximately 300 g were anesthetized with subcutaneous urethane (1.2 g/kg). The trachea was cannulated with PE240 tubing to provide a clear airway throughout the experiment. A midline abdominal incision was made and the left and right ureters were isolated. The ureters were ligated distally (to prevent escape of fluids from the bladder) and cannulated proximally with PE10 tubing. […]

rNPFF-2 [1] = biological target: T1, rNPFF-2 (Rattus norvegicus, UniProt Q9EQD2); test: Functional activity (EC50 and intrinsic activity relative to NPFF); format: cell-based; conditions: for Functional Activity rNPFF-2 I.A. %: intrinsic activity as percentage of maximal response by NPFF; for EC50: tested 0.001 nM to 3600 nM, read-out: Functional Activity rNPFF-2 EC50
T1 construct: expressed in transfected cells
T1 sequence (Q9EQD2 whole entry): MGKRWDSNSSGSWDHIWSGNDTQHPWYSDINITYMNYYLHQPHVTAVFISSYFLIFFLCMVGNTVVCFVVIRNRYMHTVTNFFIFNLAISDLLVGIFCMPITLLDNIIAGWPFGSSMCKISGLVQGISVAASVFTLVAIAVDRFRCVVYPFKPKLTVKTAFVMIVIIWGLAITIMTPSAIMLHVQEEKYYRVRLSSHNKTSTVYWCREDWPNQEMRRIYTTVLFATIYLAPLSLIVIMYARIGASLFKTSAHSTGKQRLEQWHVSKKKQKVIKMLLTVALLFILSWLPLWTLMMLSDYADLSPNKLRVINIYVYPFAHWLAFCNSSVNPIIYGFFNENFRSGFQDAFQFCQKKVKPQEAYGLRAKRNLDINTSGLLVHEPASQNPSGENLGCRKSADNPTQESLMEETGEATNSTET
Description: (§1) The data shown are representative of at least two independent experiments.

rNPFF-1 [2] = biological target: T2, rNPFF-1 (Rattus norvegicus, UniProt Q9EP86); test: as above; format: cell-based; conditions: for Functional Activity rNPFF-1 I.A. %: intrinsic activity as percentage of maximal response by NPFF; for EC50: tested 0.001 nM to 3600 nM
T2 construct: expressed in transfected cells
T2 sequence (Q9EP86 whole entry): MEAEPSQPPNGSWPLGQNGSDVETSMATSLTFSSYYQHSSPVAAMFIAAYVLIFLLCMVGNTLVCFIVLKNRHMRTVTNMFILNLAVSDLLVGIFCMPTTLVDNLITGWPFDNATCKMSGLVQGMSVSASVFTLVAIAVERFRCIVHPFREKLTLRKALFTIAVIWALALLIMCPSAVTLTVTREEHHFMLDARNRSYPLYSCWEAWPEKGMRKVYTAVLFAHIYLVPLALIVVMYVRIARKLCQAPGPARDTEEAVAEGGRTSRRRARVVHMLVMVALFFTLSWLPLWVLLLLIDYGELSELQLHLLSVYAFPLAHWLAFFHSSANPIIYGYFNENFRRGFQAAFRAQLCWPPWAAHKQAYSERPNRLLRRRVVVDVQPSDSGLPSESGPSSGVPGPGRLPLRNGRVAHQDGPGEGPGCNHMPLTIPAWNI
Description: as §1

rNPFF-2 [3] = biological target: T1, rNPFF-2; test: Radioligand binding assay, competitive displacement of [125I]1DMeNPFF at cloned NPFF receptors; conditions: cloned rat receptor
rNPFF-1 [4] = biological target: T2, rNPFF-1; test: as above; conditions: cloned rat receptor

SMILES	inhibition of distention induced contractions of the rat bladder (rat bladder; 3 mg/kg)	inhibition of bladder activity, persisted for (rat bladder) [min]	inhibition of distention induced contractions of the rat bladder (rat bladder; 1 mg/kg)	Functional Activity rNPFF-2 I.A. % (rNPFF-2 [1]) [%]	EC50 (rNPFF-2 [1]) [µM]	Functional Activity rNPFF-1 I.A. % (rNPFF-1 [2]) [%]	EC50 (rNPFF-1 [2]) [µM]	Ki (rNPFF-2 [3]) [nM]	Ki (rNPFF-1 [4]) [nM]
Cc1ccc2c(C)cc(NC(=N)N)nc2c1 [N-(4,7-dimethyl-2-quinolinyl)guanidine]	complete inhibition	12							
Cc1cc(NC(=N)N)nc2ccc(Cl)cc12 [N-(6-chloro-4-methyl-2-quinolinyl)guanidine]		35	complete inhibition						
N=C(N)NCCC[C@H](NS(=O)(=O)c1cccs1)C(=O)N[C@@H](Cc1ccccc1)C(N)=O [Compound 1013]				42	> 3.16	80	0.135	6390	211
N=C(N)NCCC[C@H](NS(=O)(=O)c1ccc(C(F)(F)F)cc1[N+](=O)[O-])C(=O)N[C@@H](Cc1ccccc1)C(N)=O [Compound 1018]				10	5.62	21	> 3.16	4430	1950
N=C(N)NCCC[C@H](NS(=O)(=O)c1ccc2ccccc2c1)C(=O)N[C@@H](Cc1ccccc1)C(N)=O [Compound 1014, N1-[(1S)-2-Amino-1-benzyl-2-oxoethyl]-(2S)-(5-guanidino)-2-[(2-naphthylsulfonyl)amino]pentanamide]				73	0.906	74	0.052	2780	314
N=C(N)NCCC[C@H](NS(=O)(=O)c1cccc2ccccc12)C(=O)N[C@@H](Cc1ccccc1)C(N)=O [Compound 1001, N1-[(1S)-2-Amino-1-benzyl-2-oxoethyl]-(2S)-(5-guanidino)-2-[(1-naphthylsulfonyl)amino]pentanamide]				81	0.527	88	0.038	1450	261
N=C(N)NCCC[C@H](NS(=O)(=O)c1ccccc1)C(=O)N[C@@H](Cc1ccccc1)C(N)=O [Compound 1008]				20	5.62	70	4.7	4410	321

— US20030144310A1 (priority 2001, published 2003)
